The assay relates to Raji (Burkitt's) lymphoma cells. The experiment in a line: MTT assay for 4-day viability of Raji (Burkitt's) lymphoma cells. The assay is classed as cell-based. Particulars: Homo sapiens, 96 h, Raji (Burkitt's) lymphoma cells highly expressing MCT1, estimated EC50 given as bin, read-out: approximate potency (EC50). An excerpt:
Specific Examples of compounds of the invention, with estimated EC50 values determined using an MTT assay for 4-day viability of Raji (Burkitt's) lymphoma cells, a cell line known to highly express MCT1 and to be sensitive to small molecule MCT inhibitors,^4 are shown in Table 8. Assay protocols follow those described in the literature.^4 Other assays that are not described here but that are standard in the field, such as an assay for competitive inhibition of transport of radiolabeled lactic acid, an MCT substrate, may also be useful in establishing mechanism of action of these compounds.

Where only a bound is given, the exact number is not on record here.

With `Cc1cc(=O)c2c(OCCCO)cc(Oc3ccnc4ccccc34)cc2o1` [Example 1, 5-(3-hydroxypropoxy)-2-methyl-7-(quinolin-4-yloxy)-4H-chromen-4-one], the EC50 is 1000 to 10000 nM. The same measure for `Cc1cc(=O)c2c(OCCCO)cc(OCc3cccc4ccccc34)cc2o1` [Example 2, 5-(3-hydroxypropoxy)-2-methyl-7-(naphthalen-1-ylmethoxy)-4H-chromen-4-one]: 1000 to 10000 nM. As for `Cc1cc(=O)c2c(OCCCCO)cc(OCc3cccc4ccccc34)cc2o1` [Example 3, 5-(4-hydroxybutoxy)-2-methyl-7-(naphthalen-1-ylmethoxy)-4H-chromen-4-one], the EC50 is 1000 to 10000 nM. Under `Cc1cc(=O)c2c(OCC(O)CO)cc(Oc3ccnc4ccccc34)cc2o1` (stereo not shown) [Example 4, 5-(2,3-dihydroxypropoxy)-2-methyl-7-(quinolin-4-yloxy)-4H-chromen-4-one] stands at least 10000 nM. Take `CC(C)c1cc(=O)c2c(OCCCCO)cc(OCc3cccc4ccccc34)cc2o1` [Example 5, 5-(4-hydroxybutoxy)-2-isopropyl-7-(naphthalen-1-ylmethoxy)-4H-chromen-4-one]: the EC50 is 100 to 1000 nM. For the compound `CC(C)c1cc(=O)c2c(OCCCO)cc(OCc3ccnc4ccccc34)cc2o1` [Example 6, 5-(3-hydroxypropoxy)-2-isopropyl-7-(quinolin-4-ylmethoxy)-4H-chromen-4-one], the EC50 is 100 to 1000 nM. Under `CC(C)c1cc(=O)c2c(OCCCO)cc(OCc3cccc4ccccc34)cc2o1` [Example 7, 5-(3-hydroxypropoxy)-2-isopropyl-7-(naphthalen-1-ylmethoxy)-4H-chromen-4-one] stands 100 to 1000 nM; under `CC(C)c1cc(=O)c2c(OCc3ccccc3CO)cc(OCc3cccc4ccccc34)cc2o1` [Example 8, 5-((2-(hydroxymethyl)benzyl)oxy)-2-isopropyl-7-(naphthalen-1-ylmethoxy)-4H-chromen-4-one], at most 100 nM; under `CC(C)c1cc(=O)c2c(OCc3ccccc3CO)cc(Oc3ccnc4ccccc34)cc2o1` [Example 9, 5-((2-(hydroxymethyl)benzyl)oxy)-2-isopropyl-7-(quinolin-4-yloxy)-4H-chromen-4-one], at most 100 nM.

Take `CC(C)c1cc(=O)c2c(OCc3ccccc3CO)cc(OCc3cccnc3C(F)(F)F)cc2o1` [Example 10, 5-((2-(hydroxymethyl)benzyl)oxy)-2-isopropyl-7-((2-(trifluoromethyl)pyridin-3-yl)methoxy)-4H-chromen-4-one]: the EC50 is at most 100 nM. Under `CC(C)c1cc(=O)c2c(OCc3ccccc3CO)cc(Oc3ncccc3C(F)(F)F)cc2o1` [Example 11, 5-((2-(hydroxymethyl)benzyl)oxy)-2-isopropyl-7-((3-(trifluoromethyl)pyridin-2-yl)oxy)-4H-chromen-4-one] stands at most 100 nM; under `CC(C)c1cc(=O)c2c(OCc3ccccc3CO)cc(OCc3cccc(C(F)(F)F)c3)cc2o1` [Example 12, 5-((2-(hydroxymethyl)benzyl)oxy)-2-isopropyl-7-((3-(trifluoromethyl)benzyl)oxy)-4H-chromen-4-one], at most 100 nM; under `CC(C)c1cc(=O)c2c(OCc3ccccc3CO)cc(OCc3ccccn3)cc2o1` [Example 13, 5-((2-(hydroxymethyl)benzyl)oxy)-2-isopropyl-7-(pyridin-2-ylmethoxy)-4H-chromen-4-one], at most 100 nM. The same measure for `CC(C)c1cc(=O)c2c(OCc3ccccc3CO)cc(OCc3cccnc3)cc2o1` [Example 14, 5-((2-(hydroxymethyl)benzyl)oxy)-2-isopropyl-7-(pyridin-3-ylmethoxy)-4H-chromen-4-one]: at most 100 nM. Under `CC(C)c1cc(=O)c2c(OCc3ccccc3CO)cc(OCc3ccncc3)cc2o1` [Example 15, 5-((2-(hydroxymethyl)benzyl)oxy)-2-isopropyl-7-(pyridin-4-ylmethoxy)-4H-chromen-4-one] stands 100 to 1000 nM; under `CC(C)c1cc(=O)c2c(OCc3ccccc3CO)cc(OCc3cncc(C(F)(F)F)c3)cc2o1` [Example 16, 5-((2-(hydroxymethyl)benzyl)oxy)-2-isopropyl-7-((5-(trifluoromethyl)pyridin-3-yl)methoxy)-4H-chromen-4-one], at most 100 nM; under `CC(C)c1cc(=O)c2c(OCc3ccccc3CO)cc(Oc3ccncc3C(F)(F)F)cc2o1` [Example 17, 5-((2-(hydroxymethyl)benzyl)oxy)-2-isopropyl-7-((3-(trifluoromethyl)pyridin-4-yl)oxy)-4H-chromen-4-one], at most 100 nM. `CC(C)c1cc(=O)c2c(OCc3ccccc3CO)cc(OCc3cncs3)cc2o1` [Example 18, 5-((2-(hydroxymethyl)benzyl)oxy)-2-isopropyl-7-(thiazol-5-ylmethoxy)-4H-chromen-4-one]: the 50% effective concentration (EC50) was 100 to 1000 nM.

With `CC(C)c1cc(=O)c2c(OCc3ccccc3CO)cc(OCc3cccc4cccnc34)cc2o1` [Example 19, 5-((2-(hydroxymethyl)benzyl)oxy)-2-isopropyl-7-(quinolin-8-ylmethoxy)-4H-chromen-4-one], the EC50 was at most 100 nM. The same measure for `CC(C)c1cc(=O)c2c(OCc3ccccc3CO)cc(OCc3ccc4ccccc4n3)cc2o1` [Example 20, 5-((2-(hydroxymethyl)benzyl)oxy)-2-isopropyl-7-(quinolin-2-ylmethoxy)-4H-chromen-4-one]: at most 100 nM; for `CC(C)c1cc(=O)c2c(OCc3ccccc3CO)cc(OCc3ccc4ncccc4c3)cc2o1` [Example 21, 5-((2-(hydroxymethyl)benzyl)oxy)-2-isopropyl-7-(quinolin-6-ylmethoxy)-4H-chromen-4-one]: 100 to 1000 nM; for `O=c1cc(C2CC2)oc2cc(OCc3cccc4ccccc34)cc(OCc3ccccc3CO)c12` [Example 22, 2-cyclopropyl-5-((2-(hydroxymethyl)benzyl)oxy)-7-(naphthalen-1-ylmethoxy)-4H-chromen-4-one]: 100 to 1000 nM. Under `O=c1cc(C2CC2)oc2cc(OCc3cccnc3C(F)(F)F)cc(OCc3ccccc3CO)c12` [Example 23, 2-cyclopropyl-5-((2-(hydroxymethyl)benzyl)oxy)-7-((2-(trifluoromethyl)pyridin-3-yl)methoxy)-4H-chromen-4-one] stands at most 100 nM; under `CC(C)c1cc(=O)c2c(OCc3ccccc3CO)cc(OCc3ccnc4ccccc34)cc2o1` [Example 24, 5-((2-(hydroxymethyl)benzyl)oxy)-2-isopropyl-7-(quinolin-4-ylmethoxy)-4H-chromen-4-one], at most 100 nM.

As to `CC(C)c1cc(=O)c2c(OCc3ccccc3CO)cc(OCc3cnc(Cl)c4ccccc34)cc2o1` [Example 25, 7-((1-chloroisoquinolin-4-yl)methoxy)-5-((2-(hydroxymethyl)benzyl)oxy)-2-isopropyl-4H-chromen-4-one], the EC50 was at most 100 nM. Under `O=c1cc(-c2ccccc2)oc2cc(Oc3ccnc4ccccc34)cc(OCCCO)c12` [Example 26, 5-(3-hydroxypropoxy)-2-phenyl-7-(quinolin-4-yloxy)-4H-chromen-4-one] stands 1000 to 10000 nM; under `O=c1cc(-c2ccccc2)oc2cc(Oc3ccnc4ccccc34)cc(OCC(O)CO)c12` (stereo not shown) [Example 27, 5-(2,3-dihydroxypropoxy)-2-phenyl-7-(quinolin-4-yloxy)-4H-chromen-4-one], at least 10000 nM; under `O=c1cc(-c2ccccc2)oc2cc(OCc3cccc4ccccc34)cc(OCCCO)c12` [Example 28, 5-(3-hydroxypropoxy)-7-(naphthalen-1-ylmethoxy)-2-phenyl-4H-chromen-4-one], 1000 to 10000 nM.

As to `O=c1cc(-c2ccccc2)oc2cc(OCc3cccc4ccccc34)cc(OCCCCO)c12` [Example 29, 5-(4-hydroxybutoxy)-7-(naphthalen-1-ylmethoxy)-2-phenyl-4H-chromen-4-one], the concentration giving a half-maximal response (EC50) is 1000 to 10000 nM. Under `CC(C)c1cc(=O)c2c(OCCCCO)cc(OCc3ccnc4ccccc34)cc2o1` [Example 30, 5-(4-hydroxybutoxy)-2-isopropyl-7-(quinolin-4-ylmethoxy)-4H-chromen-4-one] stands at most 100 nM; under `Cc1cc(=O)c2c(OCc3ccccc3CO)cc(Oc3ccnc4ccccc34)cc2o1` [Example 31, 5-((2-(hydroxymethyl)benzyl)oxy)-2-methyl-7-(quinolin-4-yloxy)-4H-chromen-4-one], 100 to 1000 nM. The same measure for `CC(C)c1cc(=O)c2c(OCc3ccccc3CO)cc(Oc3cc(C(F)(F)F)ccn3)cc2o1` [Example 32, 5-((2-(hydroxymethyl)benzyl)oxy)-2-isopropyl-7-((4-(trifluoromethyl)pyridin-2-yl)oxy)-4H-chromen-4-one]: 100 to 1000 nM; for `CC(C)c1cc(=O)c2c(OCc3ccccc3CO)cc(OCc3cncnc3)cc2o1` [Example 33, 5-((2-(hydroxymethyl)benzyl)oxy)-2-isopropyl-7-(pyrimidin-5-ylmethoxy)-4H-chromen-4-one]: 100 to 1000 nM; for `CC(C)c1cc(=O)c2c(OCCCCO)cc(COc3cccc4ccccc34)cc2o1` [Example 35, 5-(4-hydroxybutoxy)-2-isopropyl-7-((naphthalen-1-yloxy)methyl)-4H-chromen-4-one]: 1000 to 10000 nM. The same measure for `CC(C)c1cc(=O)c2c(CCCCO)cc(OCc3cccc4ccccc34)cc2o1` [Example 36, 5-(4-hydroxybutyl)-2-isopropyl-7-(naphthalen-1-ylmethoxy)-4H-chromen-4-one]: 1000 to 10000 nM; for `CC(C)c1cc(=O)c2c(CCCCCO)cc(OCc3cccc4ccccc34)cc2o1` [Example 37, 5-(5-hydroxypentyl)-2-isopropyl-7-(naphthalen-1-ylmethoxy)-4H-chromen-4-one]: 1000 to 10000 nM; for `CC(C)c1cc(=O)c2c(-c3cccc(CCO)c3)cc(OCc3cccc4ccccc34)cc2o1` [Example 38, 5-(3-(2-hydroxyethyl)phenyl)-2-isopropyl-7-(naphthalen-1-ylmethoxy)-4H-chromen-4-one]: 1000 to 10000 nM.

In general, EC50 refers to the concentration giving half of the maximal effect.

Source of the values: patent US9994555B2, “Chromenone inhibitors of monocarboxylate transporters” (THE SCRIPPS RESEARCH INSTITUTE, priority 2015, dated 2018).
